The values below are quoted from earlier work in US11000479B2, “Injectable long-acting naltrexone microparticle compositions” (Chong Kun Dang Pharmaceutical Corp., priority 2018, dated 2021).

Series [1] has as its system morphine induced analgesia. The settings on record: rat model, hot-plate test.
Series [2] deals with heroin/diamorphine effects.

As for `O=C1CC[C@@]2(O)[C@H]3Cc4ccc(O)c5c4[C@@]2(CCN3CC2CC2)[C@H]1O5` [naltrexone], the “plasma naltrexone concentration shown to be effective” value in series [1] was 1 to 2 ng/mL. Also, the “naltrexone level that completely antagonized heroin” value in series [2] (25 mg of heroin (Verebey et al. 1976)) is recorded as 2.4 ng/mL. In addition, in series [2] (Hulse et al. 2005, Comer et al. 2002), the “levels targeted as sufficient to offer protection from fatal opioid overdose” value was 1 to 2 ng/mL. In series [2] (doses as high as 500 mg diamorphine, two patients (Brewer 2002)), the “serum naltrexone level sufficient to block pure diamorphine” value is reported as 2.8 ng/mL.
